# Article PMC3561363, “A Novel Retro-Inverso Peptide Inhibitor Reduces Amyloid Deposition, Oxidation and Inflammation and Stimulates Neurogenesis in the APPswe/PS1ΔE9 Mouse Model of Alzheimer’s Disease” (PLoS ONE, 2013)
# Where a SMILES comes first, the peptide text is derived from it.
# Assays:
# [1] = tested on: 8-oxo-guanine in APP/PS1 mouse cortex; experiment: Oxidative stress, 8-oxo-guanine immunostaining, cortex; type: in vivo; settings: 100 nmol/kg i.p. once daily, 21 days, 10 months old APP/PS1 mice, vs saline, p<0.0001, 4 animals per group
# Procedure: (§1) APPswe/PS1ΔE9 mice with a C57Bl/6 background (APP/PS1 mice) were obtained from the Jackson lab (http://research.jax.org/repository/alzheimers.html). […] To look at the effects of RI-OR2-TAT on mouse brain pathology (experiment 2), 8 female 10-months-old APP/PS1 mice were used. The animals were housed in single cages in a temperature controlled holding room (21.5°C±1) with 12∶12 h light and dark cycle. Food and water was available ad libitum.
# (§2) For experiment 2, 4 animals were injected intraperitonially (i.p.) with 0.9% NaCl (vehicle control) and the other 4 with RI-OR2-TAT (100 nmol/kg in 0.9% NaCl) once daily, for 21 days. […]
# (§3) For experiment 2 (effects on brain pathology), sections were examined for activated microglia (using anti-Iba-1 antibody), oxidative stress (anti-8-oxo-guanine antibody), immature neurons (anti-doublecourtin antibody) or total plaque load (anti-Aβ antibody). […] Oxidative stress was assessed by denaturing DNA in each section using 2N HCl and the sections were then stained for 8-oxo guanine (1∶200 dilution, MAB3560, Millipore). Young immature neurons were detected by immunostaining for doublecortin (1∶200 dilution, sc-66911, Santa Cruz Biotechnology). Total plaque load was quantified by immunostaining for β-amyloid (1∶200 dilution, Invitrogen, 71–5800).
# (§4) All sections were visualized using an Axio Scope 1 fluorescence microscope (Zeiss, Germany). […]
# [2] = tested on: β-amyloid plaques in APP/PS1 mouse cortex; experiment: Amyloid plaque load, β-amyloid immunostaining, cortex; type: in vivo; settings: 100 nmol/kg i.p. once daily, 21 days, 10 months old APP/PS1 mice, vs saline, p<0.0001, N = 4 per group
# Procedure: as §1, §2, §3, §4
# Human oligomerised Aβ = experiment: Soluble Aβ oligomer levels in brain, sandwich ELISA; type: in vivo, human Aβ in APP/PS1 mice; settings: 100 nmol/kg i.p. once daily, 21 days, 10 months old APP/PS1 mice, vs saline; p<0.01, 4 animals per group
# Procedure: as §1
# For experiment 2, 4 animals were injected intraperitonially (i.p.) with 0.9% NaCl (vehicle control) and the other 4 with RI-OR2-TAT (100 nmol/kg in 0.9% NaCl) once daily, for 21 days. On the 22nd day, the animals were perfused transcardially with ice-cold PBS and 4% paraformaldehyde and then the brains were removed and post-fixed in 4% ice cold paraformaldehyde.
# Human oligomerised Aβ was measured using a kit purchased from Invitrogen, according to the manufacturer’s instructions. Briefly, the right hemispheres from the brains of transgenic APP/PS1 mice treated with RI-OR2-TAT, or controls, were pooled separately and homogenized. Quantification of total protein was determined using the Bradford protein assay and was measured on a Nanophotometer (Implen, Germany). The homogenates were centrifuged at 100,000 g at 4°C for 1 h. […] The final Aβ oligomer values were determined following normalization of total protein levels.
# [3] = tested on: activated microglia (Iba1) in APP/PS1 mouse cortex; experiment: Activated microglia, Iba1 immunostaining, cortex; type: in vivo; settings: 100 nmol/kg i.p. once daily, 21 days, 10 months old APP/PS1 mice, vs saline, p<0.0001, 4 animals per group
# Procedure: as §1, §2, §3, §4
compound,measurement,setting,value
"CC(=O)N[C@H](CCCNC(=N)N)C(=O)NCC(=O)N[C@H](Cc1ccccc1)C(=O)N[C@H](Cc1ccccc1)C(=O)N[C@@H](C(=O)N[C@H](CC(C)C)C(=O)N[C@H](CCCCN)C(=O)NCC(=O)N[C@H](CCCNC(=N)N)C(=O)N[C@H](CCCNC(=N)N)C(=O)N[C@H](CCCNC(=N)N)C(=O)N[C@H](CCCNC(=N)N)C(=O)N[C@H](CCC(N)=O)C(=O)N[C@H](CCCNC(=N)N)C(=O)N[C@H](CCCNC(=N)N)C(=O)N[C@H](CCCCN)C(=O)N[C@H](CCCCN)C(=O)N[C@H](CCCNC(=N)N)C(=O)NCC(=O)N[C@H](Cc1ccc(O)cc1)C(N)=O)C(C)C [RI-OR2-TAT, Ac-rGffvlkGrrrrqrrkkrGy-NH2] (HELM PEPTIDE1{[ac].[dR].G.[dF].[dF].[dV].[dL].[dK].G.[dR].[dR].[dR].[dR].[dQ].[dR].[dR].[dK].[dK].[dR].G.[dY].[am]}$$$$V2.0)",reduction of 8-oxo-guanine immunostaining (oxidative damage),[1],25%
same,reduction of amyloid plaque load,[2],32%
same,reduction of soluble Aß oligomer levels in brain,Human oligomerised Aβ,25%
same,reduction of number of activated microglia,[3],44%
